{"source": "patent US12629410B2", "about": "“Multi-antigenic peptide mimics of gonococcal lipo-oligosaccharide (LOS) epitopes” (priority 2019, dated 2026)", "key": {"mAb 2C7": {"test_system": "mAb 2C7", "assay": "Inhibition ELISA: inhibition of mAb 2C7 binding to immobilized gonococcal LOS", "source_text": "FIGS. 1A-1B show the structure and characterization of one of the peptide mimics described herein (also referred to as TMCP2). […] The 2C7 mimitope is indicated in shown as the sequence “H2C-CO-GPIPVLDENGLFAPGPC” (SEQ ID NO: 1) Cyclization is maintained through a thioether bond. The reverse peptide mimic core is represented the schematic of the peptide mimic as “Ac-β-Ala-Glu[Glu-OH]2.” The reverse peptide mimic core links to each cyclic peptide through a lysine (K) residue.\nIn order to compare antigenicity of peptide mimic Core Peptide 2 (monomeric cyclic CP2) and composite TMCP2 compounds with LOS that expresses the 2C7 epitope, inhibition ELISA was performed using mAb 2C7 reacted with the individual compounds to assess inhibition of binding (residual binding) of mAb to LOS by each compound. Microtiter wells were coated with LOS (80 μg/ml in PBS) purified from strain FA1090. Wells were washed and blocked with PBS-0.05% Tween 20. mAb 2C7 (0.04 μg/ml) either alone or containing monomeric cyclic peptide CP2 (1.07 to 1070 μM) or composite TMCP2 (concentrations ranging from […]) was dispended into LOS coated wells. Residual binding of 2C7 mAb was measured with anti-mouse IgG conjugated to alkaline phosphatase. Bound IgG was quantitated using a mouse IgG standard curve and percent inhibition determined compared to reaction mixtures that […].\nAttempts to measure mAb 2C7 (7) binding directly to immobilized peptide mimic Core Peptide 2 (abbreviated CP2 in FIG. 1A) and composite TMCP2 by ELISA were not successful. The possibility of poor capture of the peptides by the microtiter wells was considered and therefore used an ELISA to measure inhibition of binding (residual binding) of mAb 2C7 to immobilized gonococcal LOS that had been reacted with increasing concentrations of the peptides (FIG. 1B)."}, "[1]": {"test_system": "LOS purified from N. gonorrhoeae strain 15253", "format": "in vivo", "settings": "for mean anti-LOS IgG level: n=13"}, "N. gonorrhoeae FA1090": {"test_system": "N. gonorrhoeae FA1090", "assay": "Serum bactericidal assay, immune mouse sera plus human complement", "format": "cell-based", "settings": "for immune sera showing >50% killing: IgM-depleted sera at 1:30 (3.3%); for immune sera showing <50% survival (>50% killing): intact sera at 3.3% (1:30)", "method": "[…] Sera from mice diluted 1:1 in PBS was mixed with anti-mouse IgM agarose (Sigma; binding capacity ≥0.4 mg/ml) (1 volume of packed agarose to 1 volume of serum diluted 1:1) in a 2.0 ml microspin filter column (Costar) with a pore size of 0.22 μM) for 15 min at 22° C. Filter-sterilized IgM depleted sera were collected by centrifugation of the mixture at 1000 g for 2 min and heat-inactivated (56° C. for 30 min) to eliminate intrinsic complement activity in mouse serum prior to use in serum bactericidal assays where human complement was substituted.\n(§1) Serum bactericidal assays were performed. Bacteria that had been harvested from an overnight culture on chocolate agar plates were repassaged onto fresh chocolate agar and allowed to grow for 6 h at 37° C. in an atmosphere containing 5% CO2. Bacteria were then suspended in HBSS containing 1 mM MgCl2 and 0.15 mM CaCl2) (HBSS++) for use in serum bactericidal assays. Briefly, about 2000 colony forming units (CFUs) of N. gonorrhoeae FA090 were incubated with serial dilutions of immune mouse sera (heat-inactivated and IgM-depleted) in the presence or absence of 20% normal human serum (NHS) as a source of human complement. Serum bactericidal assays with strain MS11 were performed with IgG and IgM depleted NHS (Human complement; Pel-Freez) because this strain is susceptible to killing by NHS. Final volumes of bactericidal reaction mixtures were 150 μl. Aliquots of 25-μl reaction mixtures were plated onto chocolate agar in duplicate at the beginning of the assay (to) and again after incubation at 37° C. for 30 min (t30). Survival was calculated as the number of viable colonies at t30 relative to t0."}, "N. gonorrhoeae MS11": {"test_system": "N. gonorrhoeae MS11", "assay": "Serum bactericidal assay, immune mouse sera plus human complement", "format": "cell-based", "settings": "for killing of MS11, all 13 immune sera: 50 μg/dose schedule", "method": "Because earlier it was observed that sera from naïve and mice given adjuvant alone manifest bactericidal activity mediated by IgM, mouse IgM was depleted from all sera collected as part of immunization studies. Sera from mice diluted 1:1 in PBS was mixed with anti-mouse IgM agarose (Sigma; binding capacity ≥0.4 mg/ml) (1 volume of packed agarose to 1 volume of serum diluted 1:1) in a 2.0 ml microspin filter column (Costar) with a pore size of 0.22 μM) for 15 min at 22° C. Filter-sterilized IgM depleted sera were collected by centrifugation of the mixture at 1000 g for 2 min and heat-inactivated (56° C. for 30 min) to eliminate intrinsic complement activity in mouse serum prior to use in serum bactericidal assays where human complement was substituted.\nas §1"}, "[2]": {"test_system": "N. gonorrhoeae strain 15253", "assay": "Serum bactericidal activity of antisera raised against tetra-MAP candidates", "format": "cell-based", "settings": "post-dose 5 IgM-depleted antiserum 1:3, 17% NHS; Sigma MPL adjuvant; compared with TMCP3, TMCP4", "method": "See Tables 1A-1K for a description of peptides. Post-dose 5 mouse anti-serum (IgM depleted) was tested against N. gonorrhoeae strain 15253 at a final dilution of 1:3 in the presence of 17% normal human serum (NHS) as the complement source. Y-axis, % killing ([CFU at t0−CFU at t30/CFU at t0]×100).\nas §1"}, "[3]": {"settings": "TMCP2 50 μg + GLA-SE, 3 doses 2 weeks apart, 11 mice"}}, "note": "Several values for one entry are separate records, joined by “and”; a condition that tells them apart may be missing. Equal entries are not always repeated. Where two headings read alike, the source gives them in different places. Bridges are numbered along the chain shown (N, C = ends).", "data": [{"substance": "[(CH2-CO-GPIPVLDENGLFAPGPC)-K-OH]4 ({CH2CO}-GPIPVLDENGLFAPGPCK-OH; thioether N-17; also: tetrameric MAP) [TMCP2]", "values": [{"measurement": "fold lower molar concentration of TMCP2 (compared to CP2) required to achieve 50% inhibition", "setting": "mAb 2C7", "result": "~4", "unit": "fold"}, {"measurement": "IC50", "setting": "mAb 2C7; mAb 2C7 0.04 μg/ml, LOS-coated wells, read-out: concentration giving 50% inhibition of mAb 2C7 binding to immobilized 15253 LOS", "result": 25, "unit": "µM"}, {"measurement": "anti-LOS IgG in vaginal swabs", "setting": "[1]; 5 mice, TMCP2 50 μg/dose + GLA-SE at 0, 2, 4 weeks, 2 weeks after third dose", "result": "detected"}, {"measurement": "anti-LOS IgG levels in intact immune sera, all mice", "setting": "[1]; BALB/c, n=13 per group, TMCP2 50, 100 or 200 μg/dose + GLA-SE, 3 weeks apart", "result": "exceeded 2 μg/ml"}, {"measurement": "anti-LOS IgG response in 3 of 5 mice", "setting": "[1]; BALB/c, TMCP2 50 μg dose + GLA-SE, 3 doses", "result": "exceeded 10 μg/ml"}, {"measurement": "anti-LOS IgG response, every mouse", "setting": "[1]; BALB/c, TMCP2 50, 100 or 200 μg + GLA-SE, 3 doses 3 weeks apart, two weeks after final boosting", "result": "exceeded 2 μg/ml"}, {"measurement": "mean anti-LOS level, post-dose 3 immune sera", "setting": "[1]; [3]", "result": 2.31, "unit": "µg/mL"}, {"measurement": "range of anti-LOS level, post-dose 3 immune sera", "setting": "[1]; [3]", "result": "1.33 to 3.59", "unit": "µg/mL"}, {"measurement": "mean anti-LOS IgG level", "setting": "[1]; TMCP2 50 μg/dose + GLA-SE, 3 doses 3 weeks apart", "result": 4.98, "unit": "µg/mL"}, {"measurement": "mean anti-LOS IgG level", "setting": "[1]; TMCP2 100 μg/dose + GLA-SE, 3 doses 3 weeks apart", "result": 4.06, "unit": "µg/mL"}, {"measurement": "mean anti-LOS IgG level", "setting": "[1]; TMCP2 200 μg/dose + GLA-SE, 3 doses 3 weeks apart", "result": 3.8, "unit": "µg/mL"}, {"measurement": "IgM response to the 2C7 epitope", "setting": "[1]; pooled post-dose 3 sera, IgM binding to 15253 LOS vs 15253 ΔlgtG LOS", "result": "no apparent IgM response"}, {"measurement": "anti-LOS titers in immunization experiments", "setting": "[1]; tetrapeptides 50 μg/dose plus Sigma MPL adjuvant, BALB/c, FIG. 10", "result": "higher anti-LOS titers than TMCP4"}, {"measurement": "killing of FA1090, one serum sample", "setting": "N. gonorrhoeae FA1090; IgM-depleted post-dose 3 serum, 1:6 (16.7%), 50 μg/dose group", "result": 47, "unit": "%"}, {"measurement": "immune sera showing >50% killing", "setting": "N. gonorrhoeae FA1090; 100 μg/dose group", "result": "Three of five"}, {"measurement": "immune sera showing >50% killing", "setting": "N. gonorrhoeae FA1090; 200 μg/dose group", "result": "three of four"}, {"measurement": "Survival in intact immune serum", "setting": "N. gonorrhoeae FA1090; Table 4, TMCP2 200 μg/dose + GLA-SE, immune serum 16.7% (1/6), 16.7% NHS", "result": "0.00% and 6.19%"}, {"measurement": "killing of FA1090 by intact immune sera, all sera", "setting": "N. gonorrhoeae FA1090; final dilution 1:6 (16.7% immune serum), TMCP2 50, 100, 200 μg/dose + GLA-SE", "result": "> 50", "unit": "%"}, {"measurement": "immune sera showing <50% survival (>50% killing)", "setting": "N. gonorrhoeae FA1090; 50 μg/dose group", "result": "Four of 5"}, {"measurement": "immune sera showing <50% survival (>50% killing)", "setting": "N. gonorrhoeae FA1090; 100 μg/dose group", "result": "3 of 5"}, {"measurement": "immune sera showing <50% survival (>50% killing)", "setting": "N. gonorrhoeae FA1090; 200 μg/dose group", "result": "3 of 4"}, {"measurement": "killing of MS11, all 13 immune sera", "setting": "N. gonorrhoeae MS11; immune serum 3.3%", "result": "> 60", "unit": "%"}, {"measurement": "killing of MS11, all 13 immune sera", "setting": "N. gonorrhoeae MS11; immune serum 6.7%", "result": "> 98", "unit": "%"}, {"measurement": "complement-dependent killing of MS11, all sera in each group", "setting": "N. gonorrhoeae MS11; 13 sera per group after 3rd dose, 16.7% (1/6 dilution)", "result": "> 50", "unit": "%"}, {"measurement": "Survival in intact immune serum", "setting": "N. gonorrhoeae MS11; Table 6, TMCP2 50 μg/dose + GLA-SE, immune serum 6.7% (1/15), 6.7% IgG/IgM-depleted NHS (Pel-Freez)", "result": "0.00% and 1.52% and 0.47% and 0.93%"}, {"measurement": "complement-dependent bactericidal activity of antisera", "setting": "[2]", "result": "maximal"}]}]}
